For 24 compounds, Ki results are on record in US20200190087A1 (priority 2016, published 2020).

Like-named read-outs stand apart in the source and are kept apart here.

The target in assay [1] is T1, human μ-opioid receptor (Homo sapiens, UniProt P35372).
T1 construct: expressed in transfected cells; host or cells: CHO-K1
Briefly: Human μ-opioid receptor radioligand assay ([3H]-DAMGO). The assay is classed as binding. Here is the method: Human μ-Opioid Receptor Radioligand Assay
To investigate binding properties of test compounds to human μ-opioid receptor, transfected CHO-K1 cell membranes and [^3H]-DAMGO (Perkin Elmer, ES-542-C), as the radioligand, were used. The assay was carried out with 20 μg of membrane suspension, 1 nM of [^3H]-DAMGO in either absence or presence of either buffer or 10 μM Naloxone for total and non-specific binding, respectively. Binding buffer contained Tris-HCl 50 mM, MgCl2 5 mM at pH 7.4. Plates were incubated at 27° C. for 60 minutes. After the incubation period, the reaction mix was then transferred to MultiScreen HTS, FC plates (Millipore), filtered and plates were washed 3 times with ice-cold 10 mM Tris-HCL (pH 7.4). Filters were dried and counted at approximately 40% efficiency in a MicroBeta scintillation counter (Perkin-Elmer) using EcoScint liquid scintillation cocktail. Preferably, transfected CHO-K1 cell membranes (20 μg) were incubated with 1 nM of [^3H]-DAMGO in assay buffer containing Tris-HCl 50 mM, MgCl2 5 mM at pH 7.4. NBS (non-specific binding) was measured by adding 10 μM Naloxone. The binding of the test compound was measured at five different concentrations. Plates were incubated at 27° C. for 60 minutes. After the incubation period, the reaction mix was then transferred to MultiScreen HTS, FC plates (Millipore), filtered and plates were washed 3 times with ice-cold 10 mM Tris-HCL (pH 7.4). Filters were dried and counted at approximately 40% efficiency in a MicroBeta scintillation counter (Perkin-Elmer) using EcoScint liquid scintillation cocktail.

For assay [2], the target named is Human α2δ-1 subunit of Cav2.2 calcium channel (Homo sapiens, UniProt P54289). Briefly: Human α2δ-1 subunit of Cav2.2 calcium channel assay ([3H]-Gabapentin binding). Conditions: human α2δ-1 enriched membranes, 15 nM [3H]-Gabapentin, binding expressed as Ki; read-out: α2δ1 binding activity. As to the method:
Human α2δ-1 Subunit of Cav2.2 Calcium Channel Assay
Human α2δ-1 enriched membranes (2.5 μg) were incubated with 15 nM of radiolabeled [3H]-Gabapentin in assay buffer containing Hepes-KOH 10 mM, pH 7.4. NSB (non specific binding) was measured by adding 10 μM pregabalin. The binding of the test compound was measured at five different concentrations. After 60 min incubation at 27° C., binding reaction was terminated by filtering through Multiscreen GF/C (Millipore) presoaked in 0.5% polyethyleneimine in Vacuum Manifold Station, followed by 3 washes with ice-cold filtration buffer containing 50 mM Tris-HCl, pH 7.4. Filter plates were dried at 60° C. for 1 hour and 30 μl of scintillation cocktail were added to each well before radioactivity reading. Readings were performed in a Trilux 1450 Microbeta radioactive counter (Perkin Elmer).

Where [3] appears, read: transfected CHO-K1 cell membranes, 1 nM [3H]-DAMGO, binding expressed as Ki, read-out: Mu binding activity.

T1 sequence (P35372 whole entry): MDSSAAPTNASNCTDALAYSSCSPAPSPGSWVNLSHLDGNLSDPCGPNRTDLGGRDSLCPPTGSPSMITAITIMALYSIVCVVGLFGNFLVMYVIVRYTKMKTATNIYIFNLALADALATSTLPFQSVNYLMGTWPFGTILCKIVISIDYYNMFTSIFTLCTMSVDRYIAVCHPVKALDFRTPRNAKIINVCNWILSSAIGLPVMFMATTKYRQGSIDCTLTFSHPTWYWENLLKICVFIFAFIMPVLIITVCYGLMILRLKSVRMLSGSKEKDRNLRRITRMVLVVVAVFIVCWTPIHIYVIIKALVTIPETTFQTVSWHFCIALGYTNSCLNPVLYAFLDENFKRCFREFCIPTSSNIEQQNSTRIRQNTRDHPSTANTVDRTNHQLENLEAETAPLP
Human α2δ-1 subunit of Cav2.2 calcium channel, sequence (P54289 25-1103): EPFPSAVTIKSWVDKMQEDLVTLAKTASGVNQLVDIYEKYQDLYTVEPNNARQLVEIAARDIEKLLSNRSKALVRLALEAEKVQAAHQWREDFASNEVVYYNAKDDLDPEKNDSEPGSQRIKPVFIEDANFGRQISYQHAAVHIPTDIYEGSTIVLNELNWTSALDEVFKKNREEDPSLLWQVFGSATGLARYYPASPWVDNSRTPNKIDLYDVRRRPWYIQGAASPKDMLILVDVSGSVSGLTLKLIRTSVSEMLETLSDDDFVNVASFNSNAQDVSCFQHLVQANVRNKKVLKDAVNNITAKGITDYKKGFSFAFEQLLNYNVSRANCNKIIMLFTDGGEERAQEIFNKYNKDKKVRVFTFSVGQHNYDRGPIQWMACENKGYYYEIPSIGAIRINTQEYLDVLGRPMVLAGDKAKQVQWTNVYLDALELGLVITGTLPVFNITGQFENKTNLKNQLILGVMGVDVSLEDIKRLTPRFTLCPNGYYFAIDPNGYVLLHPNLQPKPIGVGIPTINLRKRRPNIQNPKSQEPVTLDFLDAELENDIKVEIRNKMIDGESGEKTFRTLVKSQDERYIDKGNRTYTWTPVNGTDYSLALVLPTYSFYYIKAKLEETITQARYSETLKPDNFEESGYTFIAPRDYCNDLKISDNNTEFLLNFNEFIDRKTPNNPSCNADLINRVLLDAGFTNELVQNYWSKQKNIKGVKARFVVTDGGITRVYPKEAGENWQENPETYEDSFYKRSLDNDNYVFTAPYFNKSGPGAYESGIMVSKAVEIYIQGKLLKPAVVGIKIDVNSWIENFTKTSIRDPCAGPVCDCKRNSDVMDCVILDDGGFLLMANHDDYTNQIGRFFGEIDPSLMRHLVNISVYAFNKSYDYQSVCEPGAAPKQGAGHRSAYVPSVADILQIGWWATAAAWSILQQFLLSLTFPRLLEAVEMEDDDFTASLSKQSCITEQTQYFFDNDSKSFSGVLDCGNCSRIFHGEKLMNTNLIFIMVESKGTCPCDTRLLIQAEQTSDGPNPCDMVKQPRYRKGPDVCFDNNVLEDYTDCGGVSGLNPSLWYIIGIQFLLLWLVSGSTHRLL

`CCOc1ccc(-n2nc3c(C4CCN(Cc5ccccc5)CC4)nnc(C)c3c2C)c(F)c1` [Ex 26, 7-(1-Benzylpiperidin-4-yl)-2-(4-ethoxy-2-fluorophenyl)-3,4-dimethyl-2H-pyrazolo[3,4-d]pyridazine]: the Ki in assay [1] and in assay [2] was less than 500 nM throughout.
`CCOc1ccc(-n2nc3c(C4CCN(Cc5ccc(F)cc5)CC4)nnc(C)c3c2C)c(F)c1` [Ex 27, 2-(4-Ethoxy-2-fluorophenyl)-7-(1-(4-fluorobenzyl)piperidin-4-yl)-3,4-dimethyl-2H-pyrazolo[3,4-d]pyridazine]: the Ki in assay [1] (setting [3]) is greater than 500 nM; in assay [2], 500 to 3000 nM.
As to `CCOc1ccc(-n2nc3c(C4CCN(Cc5ccccn5)CC4)nnc(C)c3c2C)c(F)c1` [Ex 28, 2-(4-Ethoxy-2-fluorophenyl)-3,4-dimethyl-7-(1-(pyridin-2-ylmethyl)piperidin-4-yl)-2H-pyrazolo[3,4-d]pyridazine], the Ki in assay [1] was less than 500 nM; in assay [2], 500 to 3000 nM.
For `CCOc1ccc(-n2nc3c(C4CCN(Cc5cccnc5)CC4)nnc(C)c3c2C)c(F)c1` [Ex 29, 2-(4-Ethoxy-2-fluorophenyl)-3,4-dimethyl-7-(1-(pyridin-3-ylmethyl)piperidin-4-yl)-2H-pyrazolo[3,4-d]pyridazine], the Ki in assay [1] (setting [3]) is greater than 500 nM; in assay [2], 500 to 3000 nM.
For `CCOc1ccc(-n2nc3c(C4CCN(Cc5ccncc5)CC4)nnc(C)c3c2C)c(F)c1` [Ex 30, 2-(4-Ethoxy-2-fluorophenyl)-3,4-dimethyl-7-(1-(pyridin-4-ylmethyl)piperidin-4-yl)-2H-pyrazolo[3,4-d]pyridazine], in that order: greater than 500 nM and 500 to 3000 nM.
The corresponding values for `CCOc1ccc(-n2nc3c(C4CCN(Cc5ncccc5O)CC4)nnc(C)c3c2C)c(F)c1` [Ex 31, 2-((4-(2-(4-Ethoxy-2-fluorophenyl)-3,4-dimethyl-2H-pyrazolo[3,4-d]pyridazin-7-yl)piperidin-1-yl)methyl)pyridin-3-ol] are greater than 500 nM and 500 to 3000 nM.
For `CCOc1ccc(-n2nc3c(C4CCN(CC5CC5)CC4)nnc(C)c3c2C)c(F)c1` [Ex 32, 7-(1-(Cyclopropyl-methyl)piperidin-4-yl)-2-(4-ethoxy-2-fluorophenyl)-3,4-dimethyl-2H-pyrazolo[3,4-d]pyridazine], in that order: greater than 500 nM and 500 to 3000 nM.
For `CCOc1ccc(-n2nc3c(C4CCN(CC5CCOCC5)CC4)nnc(C)c3c2C)c(F)c1` [Ex 33, 2-(4-Ethoxy-2-fluorophenyl)-3,4-dimethyl-7-(1-((tetrahydro-2H-pyran-4-yl)methyl)piperidin-4-yl)-2H-pyrazolo[3,4-d]pyridazine], the Ki in assay [1] (setting [3]) was greater than 500 nM; in assay [2] it was 500 to 3000 nM.
For `CCOc1ccc(-n2nc3c(C4CCN(CCC5CCOCC5)CC4)nnc(C)c3c2C)c(F)c1` [Ex 34, 2-(4-Ethoxy-2-fluorophenyl)-3,4-dimethyl-7-(1-(2-(tetrahydro-2H-pyran-4-yl)ethyl)piperidin-4-yl)-2H-pyrazolo[3,4-d]pyridazine], in that order: greater than 500 nM and 3000 to 5000 nM.
Consider `CCOc1ccc(-n2nc3c(C4CCN(Cc5cn(Cc6ccccn6)nn5)CC4)nnc(C)c3c2C)c(F)c1` [Ex 35, 2-(4-Ethoxy-2-fluorophenyl)-3,4-dimethyl-7-(1-((1-(pyridin-2-ylmethyl)-1H-1,2,3-triazol-4-yl)methyl)piperidin-4-yl)-2H-pyrazolo[3,4-d]pyridazine], for which the Ki was greater than 500 nM in assay [1] (setting [3]) and 500 to 3000 nM in assay [2].
As for `CCOc1ccc(-n2nc3c(C4CCCN(Cc5ccccc5)C4)nnc(C)c3c2C)c(F)c1` (stereo not drawn) [Ex 36, 7-(1-Benzylpiperidin-3-yl)-2-(4-ethoxy-2-fluorophenyl)-3,4-dimethyl-2H-pyrazolo[3,4-d]pyridazine], the results for the Ki in assay [1] (setting [3]) and in assay [2] were greater than 500 nM and 500 to 3000 nM, respectively.
As to `CCOc1ccc(-n2nc3c(C4CN(CCc5ccccc5)C4)nnc(C)c3c2C)c(F)c1` [Ex 37, 2-(4-Ethoxy-2-fluorophenyl)-3,4-dimethyl-7-(1-phenethylazetidin-3-yl)-2H-pyrazolo[3,4-d]pyridazine], the Ki in assay [1] (setting [3]) was greater than 500 nM; in assay [2], 500 to 3000 nM.
For `CCOc1ccc(-n2nc3c(CCCNCc4ccccc4)nnc(C)c3c2C)c(F)c1` [Ex 38, N-Benzyl-3-(2-(4-ethoxy-2-fluorophenyl)-3,4-dimethyl-2H-pyrazolo[3,4-d]pyridazin-7-yl)propan-1-amine], in that order: greater than 500 nM and 500 to 3000 nM.
Consider `CCOc1ccc(-n2nc3c(CCCN(C)CCc4ccccc4)nnc(C)c3c2C)c(F)c1` [Ex 39, 3-(2-(4-Ethoxy-2-fluorophenyl)-3,4-dimethyl-2H-pyrazolo[3,4-d]pyridazin-7-yl)-N-methyl-N-phenethylpropan-1-amine], for which the Ki in assay [1] (setting [3]) is greater than 500 nM; in assay [2], 500 to 3000 nM.
For `CCOc1ccc(-n2nc3c(CCNCc4ccccc4)nnc(C)c3c2C)c(F)c1` [Ex 40, N-Benzyl-2-(2-(4-ethoxy-2-fluorophenyl)-3,4-dimethyl-2H-pyrazolo[3,4-d]pyridazin-7-yl)ethan-1-amine], in that order: greater than 500 nM and no less than 5000 nM.
Take `CCOc1ccc(-n2nc3c(CCNCCc4ccccc4)nnc(C)c3c2C)c(F)c1` [Ex 41, 2-(2-(4-Ethoxy-2-fluorophenyl)-3,4-dimethyl-2H-pyrazolo[3,4-d]pyridazin-7-yl)-N-phenethylethan-1-amine]: the results for the Ki in assay [1] (setting [3]) and in assay [2] were greater than 500 nM and no less than 5000 nM, respectively.
For `CCOc1ccc(-n2nc3c(C4CCN(CCc5ccccn5)CC4)nnc(C)c3c2C)c(F)c1` [Ex 42, 2-(4-Ethoxy-2-fluorophenyl)-3,4-dimethyl-7-(1-(2-(pyridin-2-yl)ethyl)piperidin-4-yl)-2H-pyrazolo[3,4-d]pyridazine], in that order: greater than 500 nM and 500 to 3000 nM.
As to `CCOc1ccc(-n2nc3c(C4CCN(CCc5ccccc5F)CC4)nnc(C)c3c2C)c(F)c1` [Ex 43, 2-(4-Ethoxy-2-fluorophenyl)-7-(1-(2-fluorophenethyl)piperidin-4-yl)-3,4-dimethyl-2H-pyrazolo[3,4-d]pyridazine], the Ki in assay [1] was less than 500 nM; in assay [2], 500 to 3000 nM.
In the case of `CCOc1ccc(-n2nc3c(C4CCN(CCc5cccc(F)c5)CC4)nnc(C)c3c2C)c(F)c1` [Ex 44, 2-(4-Ethoxy-2-fluorophenyl)-7-(1-(3-fluorophenethyl)piperidin-4-yl)-3,4-dimethyl-2H-pyrazolo[3,4-d]pyridazine], the Ki in assay [1] is less than 500 nM; in assay [2], 500 to 3000 nM.
As for `CCOc1ccc(-n2nc3c(C4CCN(CCc5cccc(OC)c5)CC4)nnc(C)c3c2C)c(F)c1` [Ex 45, 2-(4-Ethoxy-2-fluorophenyl)-7-(1-(3-methoxyphenethyl)piperidin-4-yl)-3,4-dimethyl-2H-pyrazolo[3,4-d]pyridazine], the Ki in assay [1] (setting [3]) was greater than 500 nM; in assay [2], 500 to 3000 nM.
The corresponding values for `CCOc1ccc(-n2nc3c(C4CCN(CCc5ccc(F)cc5)CC4)nnc(C)c3c2C)c(F)c1` [Ex 46, 2-(4-Ethoxy-2-fluorophenyl)-7-(1-(4-fluorophenethyl)piperidin-4-yl)-3,4-dimethyl-2H-pyrazolo[3,4-d]pyridazine] are greater than 500 nM and 500 to 3000 nM.
For `CCOc1ccc(-n2nc3c(C4CCN(CCc5cccnc5)CC4)nnc(C)c3c2C)c(F)c1` [Ex 47, 2-(4-Ethoxy-2-fluorophenyl)-3,4-dimethyl-7-(1-(2-(pyridin-3-yl)ethyl)piperidin-4-yl)-2H-pyrazolo[3,4-d]pyridazine], in that order: greater than 500 nM and 500 to 3000 nM.
For `CCOc1ccc(-n2nc3c(C4CCN(Cc5ncccc5F)CC4)nnc(C)c3c2C)c(F)c1` [Ex 48, 2-(4-Ethoxy-2-fluorophenyl)-7-(1-((3-fluoropyridin-2-yl)methyl)piperidin-4-yl)-3,4-dimethyl-2H-pyrazolo[3,4-d]pyridazine], in that order: greater than 500 nM and 500 to 3000 nM.
With `CCOc1ccc(-n2nc3c(C4CCN(Cc5ncccc5C(F)(F)F)CC4)nnc(C)c3c2C)c(F)c1` [Ex 49, 2-(4-Ethoxy-2-fluorophenyl)-3,4-dimethyl-7-(1-((3-(trifluoromethyl)pyridin-2-yl)methyl)piperidin-4-yl)-2H-pyrazolo[3,4-d]pyridazine], the results for the Ki in assay [1] (setting [3]) and in assay [2] were greater than 500 nM and 500 to 3000 nM, respectively.
